# Data: ChEMBL document CHEMBL4507259 (2021)
# Legend:
# [1] = test system: KARPAS-422; assay: Karpas422 cell line Proliferation assay; format: functional, Homo sapiens; conditions: Compound concentration 10 uM; time 3 day
# [2] = test system: A-375; assay: A375 cell line Proliferation assay; format: functional, Homo sapiens; conditions: Compound concentration 10 uM; time 5 day
# [3] = test system: NCI-H596; assay: H596 cell line Proliferation assay; format: functional, Homo sapiens; conditions: Compound concentration 10 uM; time 3 day
# [4] = test system: NCI-H838; assay: H838 cell line Proliferation assay; format: functional, Homo sapiens; conditions: Compound concentration 10 uM; time 3 day
# [5] = test system: NCI-H209; assay: H209 cell line Proliferation assay; format: functional, Homo sapiens; conditions: Compound concentration 10 uM; time 4 day
# [6] = test system: WSU-NHL; assay: WSU-NHL cell line Proliferation assay; format: functional, Homo sapiens; conditions: Compound concentration 10 uM; time 3 day
# [7] = test system: NCI-H510A; assay: H510A cell line Proliferation assay; format: functional, Homo sapiens; conditions: Compound concentration 10 uM; time 4 day
# [8] = test system: NCI-H441; assay: H441 cell line Proliferation assay; format: functional, Homo sapiens; conditions: Compound concentration 10 uM; time 3 day
# [9] = test system: MDA-MB-231; assay: MDA_MB_231 cell line Proliferation assay; format: functional, Homo sapiens; conditions: Compound concentration 10 uM; time 5 day
# [10] = test system: MDA-MB-468; assay: MDA_MB_468 cell line Proliferation assay; format: functional, Homo sapiens; conditions: Compound concentration 10 uM; time 5 day
# [11] = test system: HT-144; assay: HT-144 cell line Proliferation assay; format: functional, Homo sapiens; conditions: Compound concentration 10 uM; time 5 day
# [12] = test system: SK-MEL-24; assay: SKMEL24 cell line Proliferation assay; format: functional, Homo sapiens; conditions: Compound concentration 10 uM; time 5 day
# [13] = test system: Mino; assay: Mino cell line Proliferation assay; format: functional, Homo sapiens; conditions: Compound concentration 10 uM; time 3 day
# [14] = test system: SU-DHL-2; assay: SuDHL2 cell line Proliferation assay; format: functional, Homo sapiens; conditions: Compound concentration 10 uM; time 3 day
# [15] = test system: HCC1937; assay: HCC1937 cell line Proliferation assay; format: functional, Homo sapiens; conditions: Compound concentration 10 uM; time 5 day
# [16] = test system: NCI-H23; assay: H23 cell line Proliferation assay; format: functional, Homo sapiens; conditions: Compound concentration 10 uM; time 3 day
# [17] = molecular target: Histone acetyltransferase KAT6B (Homo sapiens) (UniProt Q8WYB5); assay: MYST4 (HAT) CEREP ligand profiling; conditions: Compound concentration 10.0 uM
# [18] = test system: Daudi; assay: Daudi cell line Proliferation assay; format: functional, Homo sapiens; conditions: Compound concentration 10 uM; time 3 day
# [19] = molecular target: Sodium-dependent noradrenaline transporter (Homo sapiens) (UniProt P23975); conditions: Compound concentration 10.0 uM
# [20] = test system: G-361; assay: G361 cell line Proliferation assay; format: functional, Homo sapiens; conditions: Compound concentration 10 uM; time 5 day
# [21] = test system: SK-MEL-5; assay: SKMEL5 cell line Proliferation assay; format: functional, Homo sapiens; conditions: Compound concentration 10 uM; time 5 day
# [22] = molecular target: Sodium-dependent dopamine transporter (Homo sapiens, UniProt Q01959); assay: GPCRScan assay: inhibition of DAT; design: radioligand conc. used [nm] 3.6 – 16.0, parental cells stable HEK
# [23] = test system: CAL-120; assay: CAL_120 cell line Proliferation assay; format: functional, Homo sapiens; conditions: Compound concentration 10 uM; time 5 day
# [24] = test system: Toledo; assay: Toledo cell line Proliferation assay; format: functional, Homo sapiens; conditions: Compound concentration 10 uM; time 3 day
# [25] = test system: MOLT-4; assay: MOLT-4 cell line Proliferation assay; format: functional, Homo sapiens; conditions: Compound concentration 10 uM; time 3 day
# [26] = test system: NCI-H2444; assay: H2444 cell line Proliferation assay; format: functional, Homo sapiens; conditions: Compound concentration 10 uM; time 3 day
# [27] = test system: HCC1395; assay: HCC1395 cell line Proliferation assay; format: functional, Homo sapiens; conditions: Compound concentration 10 uM; time 5 day
# [28] = test system: EMT6; assay: EMT6 (mouse) cell line Proliferation assay; format: functional; conditions: Compound concentration 10 uM; time 5 day
# [29] = molecular target: Delta-type opioid receptor (Homo sapiens) (UniProt P41143); conditions: Compound concentration 10.0 uM
# [30] = test system: K562; assay: K562 cell line Proliferation assay; format: functional, Homo sapiens; conditions: Compound concentration 10 uM; time 3 day
# [31] = test system: MM1.S; assay: MM1.s cell line Proliferation assay; format: functional, Homo sapiens; conditions: Compound concentration 10 uM; time 3 day
# [32] = molecular target: Histone acetyltransferase KAT2B (Homo sapiens) (UniProt Q92831); assay: PCAF (HAT) CEREP ligand profiling; conditions: Compound concentration 10.0 uM
# [33] = test system: OCI-Ly1; assay: OCI Ly1 cell line Proliferation assay; format: functional, Homo sapiens; conditions: Compound concentration 10 uM; time 3 day
# [34] = test system: Farage; assay: Farage cell line Proliferation assay; format: functional, Homo sapiens; conditions: Compound concentration 10 uM; time 3 day
# [35] = test system: HT; assay: HT cell line Proliferation assay; format: functional, Homo sapiens; conditions: Compound concentration 10 uM; time 3 day
# [36] = test system: MDA-MB-453; assay: MDA_MB_453 cell line Proliferation assay; format: functional, Homo sapiens; conditions: Compound concentration 10 uM; time 5 day
# [37] = test system: NU-DUL-1; assay: NuDUL1 cell line Proliferation assay; format: functional, Homo sapiens; conditions: Compound concentration 10 uM; time 3 day
# [38] = molecular target: Activin receptor type-2A (Homo sapiens) (UniProt P27037); conditions: Compound concentration 1000.0 nM
# [39] = molecular target: T1, Alpha-1A adrenergic receptor (Homo sapiens) (UniProt P35348); conditions: Compound concentration 10.0 uM
# T1 sequence (whole entry): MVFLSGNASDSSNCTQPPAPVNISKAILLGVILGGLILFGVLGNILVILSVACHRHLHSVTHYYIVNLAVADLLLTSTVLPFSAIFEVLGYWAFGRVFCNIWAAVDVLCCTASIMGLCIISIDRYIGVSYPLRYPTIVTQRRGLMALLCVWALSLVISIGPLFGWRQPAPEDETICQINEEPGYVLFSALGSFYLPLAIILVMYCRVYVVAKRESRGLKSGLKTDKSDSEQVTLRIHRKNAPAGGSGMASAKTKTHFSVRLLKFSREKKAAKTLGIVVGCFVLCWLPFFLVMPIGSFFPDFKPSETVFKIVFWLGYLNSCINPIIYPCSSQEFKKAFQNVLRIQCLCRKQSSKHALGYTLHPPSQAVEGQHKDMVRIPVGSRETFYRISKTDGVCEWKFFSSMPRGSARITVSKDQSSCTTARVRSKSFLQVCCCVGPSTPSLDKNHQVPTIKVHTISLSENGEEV
# [40] = molecular target: T2, 5-hydroxytryptamine receptor 1A (Homo sapiens) (UniProt P08908); assay: 5-HT1A (h) CEREP ligand profiling; conditions: filed as agonist, Compound concentration 10.0 uM
# T2 sequence (whole entry): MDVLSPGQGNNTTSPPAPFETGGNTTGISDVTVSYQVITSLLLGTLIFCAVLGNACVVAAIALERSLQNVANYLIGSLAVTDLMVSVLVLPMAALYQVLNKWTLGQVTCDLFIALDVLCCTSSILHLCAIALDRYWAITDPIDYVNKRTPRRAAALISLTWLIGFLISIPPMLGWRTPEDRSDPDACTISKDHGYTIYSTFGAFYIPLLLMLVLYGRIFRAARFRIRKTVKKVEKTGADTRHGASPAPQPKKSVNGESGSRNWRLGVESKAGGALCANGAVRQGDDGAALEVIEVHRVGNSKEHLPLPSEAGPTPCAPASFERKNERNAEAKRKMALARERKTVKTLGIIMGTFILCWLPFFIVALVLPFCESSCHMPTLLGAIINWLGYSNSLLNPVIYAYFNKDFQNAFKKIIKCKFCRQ
# [41] = molecular target: Tyrosine-protein kinase JAK1 (Homo sapiens) (UniProt P23458); conditions: Compound concentration 1000.0 nM
# [42] = molecular target: Dual specificity mitogen-activated protein kinase kinase 1 (Homo sapiens) (UniProt Q02750); conditions: Compound concentration 1000.0 nM
# [43] = molecular target: Serine/threonine-protein kinase PAK 2 (Homo sapiens) (UniProt Q13177); conditions: Compound concentration 1000.0 nM
# [44] = molecular target: Activin receptor type-1 (Homo sapiens) (UniProt Q04771); conditions: Compound concentration 1000.0 nM
# [45] = molecular target: Adenosine receptor A2b (Homo sapiens) (UniProt P29275); assay: A2B (h) CEREP ligand profiling; conditions: filed as antagonist, Compound concentration 10.0 uM
# [46] = molecular target: Insulin-like growth factor 1 receptor (Homo sapiens) (UniProt P08069); conditions: Compound concentration 1000.0 nM
# [47] = molecular target: Receptor-type tyrosine-protein kinase FLT3 (Homo sapiens) (UniProt P36888); conditions: Compound concentration 1000.0 nM
# Chain of Receptor-type tyrosine-protein kinase FLT3 (Homo sapiens) (P36888 whole entry): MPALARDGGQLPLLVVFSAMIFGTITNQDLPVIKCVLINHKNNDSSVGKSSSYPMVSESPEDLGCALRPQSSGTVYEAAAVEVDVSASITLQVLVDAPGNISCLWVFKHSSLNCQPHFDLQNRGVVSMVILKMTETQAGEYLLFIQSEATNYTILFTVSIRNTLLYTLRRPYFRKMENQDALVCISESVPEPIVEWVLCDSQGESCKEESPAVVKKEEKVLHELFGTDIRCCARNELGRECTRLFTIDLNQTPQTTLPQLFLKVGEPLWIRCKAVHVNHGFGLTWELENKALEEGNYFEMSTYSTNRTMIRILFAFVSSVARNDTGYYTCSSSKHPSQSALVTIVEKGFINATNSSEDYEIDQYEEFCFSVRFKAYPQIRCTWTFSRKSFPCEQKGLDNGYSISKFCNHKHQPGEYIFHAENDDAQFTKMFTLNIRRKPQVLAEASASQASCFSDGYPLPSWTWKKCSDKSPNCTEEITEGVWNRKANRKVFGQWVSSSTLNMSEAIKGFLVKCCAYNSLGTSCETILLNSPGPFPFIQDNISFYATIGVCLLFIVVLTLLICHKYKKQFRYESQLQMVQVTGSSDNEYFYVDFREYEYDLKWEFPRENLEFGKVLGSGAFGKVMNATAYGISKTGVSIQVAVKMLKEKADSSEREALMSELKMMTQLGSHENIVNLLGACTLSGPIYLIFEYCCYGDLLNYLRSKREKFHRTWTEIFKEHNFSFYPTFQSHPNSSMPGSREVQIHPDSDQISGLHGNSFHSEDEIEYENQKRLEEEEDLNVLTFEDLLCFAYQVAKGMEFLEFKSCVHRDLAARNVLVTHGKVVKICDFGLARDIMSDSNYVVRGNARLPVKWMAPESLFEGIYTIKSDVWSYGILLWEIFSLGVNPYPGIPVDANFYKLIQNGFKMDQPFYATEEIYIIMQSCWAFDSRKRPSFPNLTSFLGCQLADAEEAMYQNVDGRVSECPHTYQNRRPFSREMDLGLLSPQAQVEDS
# Chain of Sodium-dependent dopamine transporter (Q01959 whole entry): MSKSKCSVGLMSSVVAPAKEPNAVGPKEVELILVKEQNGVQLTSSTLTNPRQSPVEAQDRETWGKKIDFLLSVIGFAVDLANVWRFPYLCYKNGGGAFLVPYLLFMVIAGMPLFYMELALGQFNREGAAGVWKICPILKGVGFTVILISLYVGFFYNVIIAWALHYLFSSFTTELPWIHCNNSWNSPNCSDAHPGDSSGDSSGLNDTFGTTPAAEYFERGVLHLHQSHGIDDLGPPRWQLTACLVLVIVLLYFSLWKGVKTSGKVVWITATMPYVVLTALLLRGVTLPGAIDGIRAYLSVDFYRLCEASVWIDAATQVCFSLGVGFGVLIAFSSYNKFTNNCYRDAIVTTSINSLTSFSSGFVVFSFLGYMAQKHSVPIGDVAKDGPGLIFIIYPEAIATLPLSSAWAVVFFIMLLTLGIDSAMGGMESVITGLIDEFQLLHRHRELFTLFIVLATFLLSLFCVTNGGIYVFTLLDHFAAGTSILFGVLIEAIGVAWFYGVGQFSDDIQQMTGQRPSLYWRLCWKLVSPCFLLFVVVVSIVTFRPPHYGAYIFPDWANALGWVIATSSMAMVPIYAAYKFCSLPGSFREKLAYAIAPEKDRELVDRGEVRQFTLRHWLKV
# Chain of Serine/threonine-protein kinase PAK 2 (Homo sapiens) (Q13177 whole entry): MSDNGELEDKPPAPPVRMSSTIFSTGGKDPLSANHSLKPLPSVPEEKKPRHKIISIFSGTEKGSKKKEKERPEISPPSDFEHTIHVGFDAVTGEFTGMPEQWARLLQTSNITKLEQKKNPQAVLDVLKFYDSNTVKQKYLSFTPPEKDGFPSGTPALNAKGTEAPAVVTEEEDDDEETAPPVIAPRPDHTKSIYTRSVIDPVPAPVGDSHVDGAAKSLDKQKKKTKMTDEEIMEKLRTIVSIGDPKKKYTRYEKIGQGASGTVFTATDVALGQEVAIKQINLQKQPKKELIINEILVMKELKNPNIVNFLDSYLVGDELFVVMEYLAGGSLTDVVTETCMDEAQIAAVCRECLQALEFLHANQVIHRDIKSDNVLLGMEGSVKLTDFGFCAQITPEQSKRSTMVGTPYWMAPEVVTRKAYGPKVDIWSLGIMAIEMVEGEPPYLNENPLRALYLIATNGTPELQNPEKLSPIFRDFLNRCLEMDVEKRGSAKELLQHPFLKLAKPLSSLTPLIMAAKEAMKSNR
# Chain of Activin receptor type-2A (Homo sapiens) (P27037 whole entry): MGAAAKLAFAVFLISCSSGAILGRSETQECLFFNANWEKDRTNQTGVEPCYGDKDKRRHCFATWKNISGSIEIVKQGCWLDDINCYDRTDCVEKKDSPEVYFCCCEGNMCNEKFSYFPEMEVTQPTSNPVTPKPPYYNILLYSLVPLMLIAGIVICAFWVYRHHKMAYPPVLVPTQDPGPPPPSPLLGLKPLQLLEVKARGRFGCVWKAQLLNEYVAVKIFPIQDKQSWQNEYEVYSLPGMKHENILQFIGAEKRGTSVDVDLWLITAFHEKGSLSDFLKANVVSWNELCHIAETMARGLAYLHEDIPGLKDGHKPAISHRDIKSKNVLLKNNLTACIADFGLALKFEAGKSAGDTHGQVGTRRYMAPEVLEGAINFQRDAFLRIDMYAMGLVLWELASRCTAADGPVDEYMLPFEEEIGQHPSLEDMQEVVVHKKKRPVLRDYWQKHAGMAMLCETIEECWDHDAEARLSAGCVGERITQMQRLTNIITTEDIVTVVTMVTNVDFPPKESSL
# Chain of Histone acetyltransferase KAT2B (Homo sapiens) (Q92831 whole entry, looked up): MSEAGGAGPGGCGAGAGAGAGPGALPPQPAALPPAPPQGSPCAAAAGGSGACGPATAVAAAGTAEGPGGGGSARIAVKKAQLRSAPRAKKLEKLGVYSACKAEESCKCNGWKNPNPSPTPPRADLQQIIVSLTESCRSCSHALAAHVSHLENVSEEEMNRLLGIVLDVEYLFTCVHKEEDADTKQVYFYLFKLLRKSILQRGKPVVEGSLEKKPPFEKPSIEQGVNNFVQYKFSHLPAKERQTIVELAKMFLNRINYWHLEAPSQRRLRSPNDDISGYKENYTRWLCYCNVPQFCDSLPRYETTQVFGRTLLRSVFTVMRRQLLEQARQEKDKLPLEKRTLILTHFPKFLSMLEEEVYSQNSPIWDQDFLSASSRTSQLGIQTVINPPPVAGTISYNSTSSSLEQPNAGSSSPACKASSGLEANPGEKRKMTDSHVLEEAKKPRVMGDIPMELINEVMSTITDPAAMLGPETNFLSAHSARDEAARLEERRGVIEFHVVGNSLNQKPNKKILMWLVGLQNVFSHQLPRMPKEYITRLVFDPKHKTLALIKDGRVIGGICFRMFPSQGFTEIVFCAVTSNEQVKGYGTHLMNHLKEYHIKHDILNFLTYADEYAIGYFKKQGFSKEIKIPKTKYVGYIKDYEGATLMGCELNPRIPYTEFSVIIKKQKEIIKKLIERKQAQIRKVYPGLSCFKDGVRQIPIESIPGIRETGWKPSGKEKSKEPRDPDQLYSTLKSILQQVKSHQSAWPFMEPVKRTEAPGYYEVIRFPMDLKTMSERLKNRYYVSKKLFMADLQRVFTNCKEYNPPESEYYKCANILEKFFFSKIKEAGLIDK
# Chain of Dual specificity mitogen-activated protein kinase kinase 1 (Homo sapiens) (Q02750 whole entry): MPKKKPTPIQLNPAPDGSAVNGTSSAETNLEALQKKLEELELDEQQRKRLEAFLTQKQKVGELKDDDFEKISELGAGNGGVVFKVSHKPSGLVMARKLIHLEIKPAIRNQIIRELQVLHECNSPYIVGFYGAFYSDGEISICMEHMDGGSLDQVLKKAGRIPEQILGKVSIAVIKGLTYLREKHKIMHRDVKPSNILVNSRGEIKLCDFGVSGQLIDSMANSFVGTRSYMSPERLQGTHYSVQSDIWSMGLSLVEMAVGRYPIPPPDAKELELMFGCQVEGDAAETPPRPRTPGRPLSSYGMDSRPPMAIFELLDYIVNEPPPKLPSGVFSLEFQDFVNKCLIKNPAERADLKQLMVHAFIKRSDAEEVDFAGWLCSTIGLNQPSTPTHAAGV
# Chain of Activin receptor type-1 (Homo sapiens) (Q04771 whole entry): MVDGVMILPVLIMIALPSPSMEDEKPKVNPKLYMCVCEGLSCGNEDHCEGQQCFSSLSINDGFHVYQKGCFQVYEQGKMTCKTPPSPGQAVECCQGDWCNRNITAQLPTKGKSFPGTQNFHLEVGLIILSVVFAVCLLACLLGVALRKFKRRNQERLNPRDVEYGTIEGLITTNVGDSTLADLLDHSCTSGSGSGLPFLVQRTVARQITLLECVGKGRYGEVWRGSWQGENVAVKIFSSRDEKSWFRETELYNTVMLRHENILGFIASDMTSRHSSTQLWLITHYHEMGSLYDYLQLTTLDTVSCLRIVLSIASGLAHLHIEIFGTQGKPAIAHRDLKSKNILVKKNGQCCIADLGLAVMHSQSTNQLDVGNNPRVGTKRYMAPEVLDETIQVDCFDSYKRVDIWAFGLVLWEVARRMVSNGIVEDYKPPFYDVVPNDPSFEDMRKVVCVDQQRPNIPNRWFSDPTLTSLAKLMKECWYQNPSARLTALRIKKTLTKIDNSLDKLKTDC
# Chain of Delta-type opioid receptor (Homo sapiens) (P41143 whole entry): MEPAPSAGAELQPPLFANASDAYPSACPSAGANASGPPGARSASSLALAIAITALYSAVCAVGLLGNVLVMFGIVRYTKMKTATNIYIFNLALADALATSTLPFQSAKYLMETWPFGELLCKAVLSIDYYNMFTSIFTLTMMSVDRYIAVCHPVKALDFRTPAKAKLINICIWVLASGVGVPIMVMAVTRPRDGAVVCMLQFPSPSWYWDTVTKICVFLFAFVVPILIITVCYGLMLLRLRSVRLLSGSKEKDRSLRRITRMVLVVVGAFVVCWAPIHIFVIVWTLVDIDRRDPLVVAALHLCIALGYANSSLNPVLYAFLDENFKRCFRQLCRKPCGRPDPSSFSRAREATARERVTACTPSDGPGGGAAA
structure (smiles),measurement,setting,value
CNC(=O)Nc1ccc2c(c1)CC[C@@]21OC(=O)N(CC(=O)N(Cc2ccc(F)cc2)[C@@H](C)C(F)(F)F)C1=O [A-485],Cell Proliferation EC50,[1],0.2454 µM
same,Cell Proliferation EC50,[2],>10 µM
same,Cell Proliferation EC50,[3],>10 µM
same,Cell Proliferation EC50,[4],6.99 µM
same,Cell Proliferation EC50,[5],0.4 µM
same,Cell Proliferation EC50,[6],1.063 µM
same,Cell Proliferation EC50,[7],>10 µM
same,Cell Proliferation EC50,[8],>10 µM
same,Cell Proliferation EC50,[9],>10 µM
same,Cell Proliferation EC50,[10],0.3767 µM
same,Cell Proliferation EC50,[11],3.077 µM
same,Cell Proliferation EC50,[12],>10 µM
same,Cell Proliferation EC50,[13],0.5322 µM
same,Cell Proliferation EC50,[14],0.9538 µM
same,Cell Proliferation EC50,[15],>10 µM
same,Cell Proliferation EC50,[16],1.791 µM
same,inhibition,[17],1.4%
same,Cell Proliferation EC50,[18],0.4346 µM
same,inhibition,[19],-3.76%
same,Cell Proliferation EC50,[20],3.768 µM
same,Cell Proliferation EC50,[21],0.907 µM
same,Ki,[22]; read-out: Ki,1.82 µM
same,Ki,[22]; read-out: pKi (converted),1.78 µM
same,Cell Proliferation EC50,[23],>10 µM
same,Cell Proliferation EC50,[24],0.4875 µM
same,Cell Proliferation EC50,[25],>10 µM
same,Cell Proliferation EC50,[26],5.918 µM
same,Cell Proliferation EC50,[27],>10 µM
same,Cell Proliferation EC50,[28],0.4989 µM
same,inhibition,[29],-2.53%
same,Cell Proliferation EC50,[30],1.27 µM
same,Cell Proliferation EC50,[31],0.181 µM
same,inhibition,[32],1%
same,Cell Proliferation EC50,[33],0.9405 µM
same,Cell Proliferation EC50,[34],>10 µM
same,Cell Proliferation EC50,[35],>10 µM
same,Cell Proliferation EC50,[36],1.8664 µM
same,Cell Proliferation EC50,[37],0.4781 µM
CNC(=O)Nc1ccc2c(c1)[C@@]1(CC2)OC(=O)N(CC(=O)N(Cc2ccc(F)cc2)[C@@H](C)C(F)(F)F)C1=O [A-486],residual activity,[38],100%
same,inhibition,[39],0.04%
same,inhibition,[40],8%
same,residual activity,[41],93%
same,residual activity,[42],98%
same,residual activity,[43],94%
same,residual activity,[44],89%
same,inhibition,[45],1%
same,residual activity,[46],100%
same,residual activity,[47],92%
